Broadly, the IC50 is the concentration that inhibits the measured activity by half. The Ki is a dissociation constant, usually derived from enzyme kinetics or from competition with a known ligand.

These results are taken from paper PMC4279401 (Oncotarget, 2014).

Data set [1] concerns MDA-MB231 cells. Kind of data set: Microarray gene set enrichment analysis. It counts as cell-based, Human. To be noted: 1 at 5 μM, 2 at 10 μM, in words. On the procedure: 10^5 cells/well were incubated with compounds for 14 days. Cells were lysed immediately in TRIzol® Reagent, frozen in liquid nitrogen, and shipped to Asuragen, Inc. (Austin, TX) for microarray experiments. RNA was isolated, amplified, and hybridized to Illumina Human HT-12 v4 arrays according to the manufacturer's protocol. Microarray data were log2 transformed and then normalized to have the same median for all the arrays. Moderate t-statistics were used to test if genes were differentially expressed between the groups of interest. Benjamini and Hochberg method was used to correct for multiple comparisons. R and Bioconductor packages were used for all the statistical analyses (http://cran.us.r-project.org/, http://www.bioconductor.org/). Gene set enrichment analysis was performed using GSEA software from Broad Institute (Boston, MA).

Data set [2] has as its system MDA-MB231 cells. Description: Apoptosis, Annexin V FACS. Type of data set: cell-based, Human. As for the experimental part:
(§1) For apoptosis and cell cycle analysis, 10^5 cells/well were incubated with increasing concentrations of a compound for 7 or 10 days. Apoptosis was determined using the FITC Annexin V Apoptosis Detection Kit I (BD Bioscience) according to the manufacturer's protocol. Cells for cell cycle analysis were fixed in cold 70% ethanol at 4°C and stained with Propidium iodide (Sigma-Aldrich) (20 μg/ml) and RNase A (10 μg/ml) for 30min. Cells were analyzed using a FACS Calibur (BD Biosciences/Applied Biosystems) and data were processed using the program Flowjo (version7.6.5).

Data set [3] relates to MDA-MB231 cells. Description: Cell cycle analysis, propidium iodide FACS. Type of data set: cell-based, Human. To be noted: MDA-MB231, in words. On the procedure:
as §1

The test system of the next data set is A549. Description: Cell proliferation, MTT assay. It counts as cell-based, Human. The settings on record: in words. (Tetrazolium dyes change colour on reduction, which living cells bring about.)
In data set [4] the test system is MDA-MB231 cells. Kind of data set: ALDEFLUOR assay. Type of data set: cell-based, Human. To be noted: in words. As for the experimental part:
(§2) 5 × 10^4 cells/well were incubated with compounds for 14 days. The ALDH activity of cells was determined by using the ALDEFLUOR assay kit (StemCell Technologies) according to the manufacturer's instructions. Combinations of fluorochrome-conjugated monoclonal antibodies against human CD44-FITC and CD24-PE were obtained from BD Biosciences. Primary antibodies or the respective isotype controls (BD Biosciences) were added to the cell suspension, according to the manufacturer's recommendation, and incubated at 4°C for 20 min. Dead cells were eliminated using propidium iodide (Sigma). The labelled cells were analyzed on a FACS Calibur (BD Biosciences/Applied Biosystems).

For data set [5], the system named is MDA-MB231 cells. Description: Quantitative PCR of EMT genes. Type of data set: cell-based, Human. The settings on record: MDA-MB231, qPCR, dose-dependent, in words. On the procedure: 10^4 cells/well were incubated with compounds for 14 days with media containing compounds replaced every 3-4 days. Total RNA was extracted from cells using RNeasy mini kit (Qiagen). 100-1000 ng of total RNA was reverse transcribed using iScript™ Reverse Transcription Supermix (Bio-Rad) according to the manufacturer's protocol. Quantitative real-time PCR was carried out using the RT^2 SYBR Green ROX™ qPCR Mastermix (Qiagen) according to the manufacturer's instructions. Measurements were performed in triplicate, using GAPDH or human 18S ribosomal RNA as a reference gene. The sequences of primers used are listed in the Supplementary Table. Real-time PCR was performed using the ABI Prism 7300 sequence detection system.
(In general: Real-time PCR tracks product formation cycle by cycle.)

Data set [6] concerns MDA-MB231. Description: Transwell cell migration assay. It counts as cell-based, Human. The settings on record: MDA-MB231, Transwell with and without Matrigel, in words. As for the experimental part: 5 × 10^4 cells/well were incubated with compounds for 14 days. For transwell migration assays, 5× 10^4 cells were plated in the top chamber with the non-coated membrane (24-well insert; pore size, […]; BD Biosciences). For invasion assays, 5× 10^4 cells were plated in the top chamber with Matrigel-coated membrane. The cells on the apical side of each insert were then scraped off after 22 h for both assays. The wells were washed with PBS, fixed with 100% methanol and stained with DAPI. Cells that had migrated to the basal side of the membrane were visualized and counted with a Nikon Eclipse TE2000-U microscope at 10×. Pictures of three random fields were obtained and the number of cells that had migrated quantified using ImageJ analysis software.

Data set [7] has as its system MDA-MB231 cells. Description: CD44/CD24 flow cytometry. To be noted: MDA-MB231, FACS, in words. Type of data set: cell-based, Human. As for the experimental part:
as §2
(Flow cytometry measures light scatter and fluorescence of single cells or particles in a stream.)

The conditions of data set [8]: in vivo; cited from earlier work.
The test system of data set [9] is MDA-MB231, BT549 and MCF-7 breast cancer cells. Description: Cell proliferation, MTT assay, DOT1L+ breast cancer cells. It counts as cell-based, Human. To be noted: Homo sapiens.
The subject of data set [10] is MDA-MB231. Kind of data set: Cell proliferation, MTT assay. Type of data set: cell-based. To be noted: Homo sapiens.
For a further data set, the system named is H3K79 methylation. Description: Western blot of histone methylation in MDA-MB231. It counts as cell-based, Human. To be noted: for effect on H3K79 methylation: in words. On the procedure:
(§3) Human cell lines BT549, MDA-MB231, MCF-7, MDA-MB157, HCC70, A549 and NB4 were obtained from the American Type Culture Collection (ATCC) and cultured using ATCC recommended conditions. Primary antibodies against H3K79me2, H3K27me3, H3K4me3, H3K36me2, H4K20me3, H3K9me-pan were purchased from Cell Signaling (Danvers, MA). siRNA experiments were performed by transfecting MDA-MB-231 cells with X-tremeGENE Transfection Reagent (Roche) and 10 nM siRNA (Invitrogen), according to the manufacturer's protocol.
(§4) 10^6 cells/well were incubated with increasing concentrations of a compound for 5 days and histones extracted with the EpiQuik™ Total Histone Extraction Kit (Epigentek) according to the manufacturer's protocol. Equal amounts of histones (2μg) were separated on SDS-PAGE and transferred to PVDF membranes. The blots were probed with primary antibodies, followed by anti-rabbit IgG (Thermo Scientific) secondary antibodies. For western blot analysis of MDA-MB231 xenograft tumors, tumors were harvested and frozen in liquid nitrogen. Histones were extracted and analyzed by immunoblotting as described above.

The test system of data set [11] is methylation at H3K4, H3K9, H3K27, H3K36 and H4K20. Kind of data set: Western blot of methylation at other histone lysines in MDA-MB231. Type of data set: cell-based, Human. To be noted: at concentrations of <1 μM, in words. As for the experimental part: as §4
Data set [12] relates to H3K27 methylation. Description: Western blot of histone methylation in MDA-MB231. Type of data set: cell-based. To be noted: Homo sapiens, MDA-MB-231, Fig. 4b, read-out: IC50 against H3K27 methylation. As for the experimental part:
as §4

A further data set deals with BT549. Kind of data set: Cell proliferation, MTT assay. It counts as cell-based. To be noted: Homo sapiens.
A further data set concerns MCF-7. Description: Cell proliferation, MTT assay. To be noted: Homo sapiens. It counts as cell-based.
A further data set addresses EZH2. To be noted: read-out: Ki against EZH2; cited from earlier work.
Data set [13] has as its system H3K27 methylation. Description: Western blot of histone methylation in BT549. It counts as cell-based, Human. On the procedure: as §4
Data set [14] deals with other lysine methyltransferases. The settings on record: read-out: Ki against other lysine methyltransferases; cited from earlier work.
Data set [15] has as its system MDA-MB231. Description: Cell proliferation after DOT1L siRNA. Type of data set: cell-based, Human. The settings on record: MDA-MB231, siRNA treatment, in words. On the procedure:
as §3, with “protocol. The sequences for DOT1L siRNA (Invitrogen) were: • siRNA-1: 634-[…]; • siRNA-2: 117-[…]; • siRNA-3: 104-[…]; • siRNA-4: 470-[…]; • siRNA-5: 120-[…]. • siRNA-`mock represents an siRNA that has no homology to any vertebrate transcriptome.” for “protocol.”

Several values for one entry are separate records, joined by “and”; a condition that tells them apart may be missing. Identical values can stand only once. Entries after “also recorded” stand apart in the source; their conditions may differ. Like-named read-outs stand apart in the source and are kept apart here.

For the compound `CC(C)N(CCCNC(=O)Nc1ccc(C(C)(C)C)cc1)CC1OC(n2cnc3c(N)ncnc32)C(O)C1O` (centres unmarked) [Compound 2, SYC-522], in the data set with MDA-MB231 cells [1], the “genes whose expression is low in breast CSCs (GSEA)” value is listed as “upregulation” and the “pro-proliferation genes in the PAM50 gene set (GSEA)” value was “downregulation”. The apoptosis result with MDA-MB231 cells [2] (MDA-MB231, 2 μM, in words) is given as “negligible amount of apoptosis”. In addition, the apoptotic rate in the data set on MDA-MB231 cells [2] (MDA-MB231, 10 μM) is 7.8% and ~ 8%. For the same compound, the “sub-G1 phase cell population” value in the data set with MDA-MB231 cells [3] was “increased sub-G1 phase cell population; also recorded: moderately increased pre-G phase cell population”. Also, in the data set on A549, the “activity against A549 cells” value is “negligible activity”. Moreover, the “ALDH+ cell population” value with MDA-MB231 cells [4] was “considerably reduced”. In addition, in the data set on MDA-MB231 cells [5], the “gene expression of E-cadherin” value is “increase”; the “gene expression of TGF-β, Snail and Zeb” value is on record as “significantly reduce”. For the same compound, the “cell migration and invasion” value with MDA-MB231 [6] was “reduced abilities of cell migration and invasion”. In the data set on MDA-MB231 cells [7], the “CD44+/CD24− cell population” value is given as “significantly decreased” and the “cell population expressing high levels of CD24” value was “considerably more cells expressed higher levels of CD24; also recorded: increased cell population”. Besides, in data set [8], the pharmacokinetics result is recorded as “poor pharmacokinetics with short plasma half-lives”.
For the compound `Nc1nccc2c1ncn2C1C=C(CO)C(O)C1O` (centres unmarked) [Compound 4, 3-deazaneplanocin A], the EC50 in data set [9] (72 h, read-out: EC50, 3-day treatment) is over 20 µM; in data set [9] (360 h, read-out: anti-proliferation EC50), 0.035 to 0.48 µM; in the data set on MDA-MB231 [10] (MDA-MB-231, 72 h, read-out: Anti-proliferative activity EC50), over 20 µM; in the data set on MDA-MB231 [10] (MDA-MB-231, 360 h, read-out: EC50, 15-day treatment) it was 0.035 µM; with BT549 (BT-549, 72 h, read-out: Anti-proliferative activity EC50), over 20 µM; with BT549 (BT-549, 360 h, read-out: EC50, 15-day treatment), 0.065 µM. The EC50 with MCF-7 (MCF7, 72 h, read-out: Anti-proliferative activity EC50) is over 20 µM; with MCF-7 (MCF7, 360 h, read-out: EC50, 15-day treatment), 0.48 µM. Also, the IC50 is about 0.05 µM with H3K79 methylation (Homo sapiens, MDA-MB-231, read-out: IC50 of H3K79 methylation inhibition) and over 6 µM with H3K27 methylation [12]. In data set [11], the “inhibitory activity against methylation at H3K4, H3K9, H3K27, H3K36 and H4K20” value is “no or negligible inhibitory activities; also recorded: negligible effects”.
On to `Cc1cc(C)c(CNC(=O)c2cc(-c3ccc(CN4CCOCC4)cc3)cc3c2cnn3C2CCCC2)c(=O)[nH]1` [Compound 5, EPZ005687], for which the EC50 in data set [9] (three breast cancer cells, regardless of the treatment durations, read-out: anti-proliferation EC50) was 11 to 35 µM; with MDA-MB231 [10] (MDA-MB-231, 72 h, MDA-MB231, 3-day treatment, read-out: Anti-proliferative activity EC50) it was 11 µM; with MDA-MB231 [10] (MDA-MB-231, 360 h, MDA-MB231, 15-day treatment, read-out: Anti-proliferative activity EC50), 13 µM; in the data set with BT549 (BT-549, 72 h, BT549, 3-day treatment, read-out: Anti-proliferative activity EC50), 34 µM; in the data set with BT549 (BT-549, 360 h, BT549, 15-day treatment, read-out: Anti-proliferative activity EC50) it was 35 µM; in the data set on MCF-7 (MCF7, 72 h, MCF-7, 3-day treatment, read-out: Anti-proliferative activity EC50) it was 28 µM. Moreover, the EC50 with MCF-7 (MCF7, 360 h, MCF-7, 15-day treatment, read-out: Anti-proliferative activity EC50) was 12 µM. Moreover, the inhibitory constant (Ki) on EZH2 was 0.024 µM. The “selectivity of histone methylation inhibition” value with H3K27 methylation [13] (BT549, Western blot, in words) is “only inhibited H3K27 methylation”. Further, the IC50 with H3K27 methylation [13] (Homo sapiens, BT-549, 5 days, breast cancer cells, Fig. 4d (BT549), read-out: IC50 of H3K27 methylation inhibition) is about 0.05 µM.
For the compound `Nc1ncnc2c1ncn2[C@@H]1O[C@H](CSCC[C@H](N)C(=O)O)[C@@H](O)[C@H]1O` [SAH, S-adenosyl-homocycteine], the results for the inhibitory constant (Ki) (at EZH2; in data set [14]) were 7.5 µM and over 1 µM, respectively.
On to “siRNA-1: DOT1L siRNA (Invitrogen): 634-CGCGAGUUCAGGAAGUGGAUGAAAU (other strand not given here)”, for which the “effect on cell proliferation” value in the data set with MDA-MB231 [15] is on record as “slowed down cell proliferation; also recorded: significantly inhibited cell proliferation”. Moreover, the “effect on H3K79 methylation” value in the data set with H3K79 methylation was “significantly reduced H3K79 methylation”.
The like results for “siRNA-2: DOT1L siRNA (Invitrogen): 117-CGAUAAACAUCACGAUGCUGCUCAU (other strand not given here)” were, in that order, “did not significantly affect the growth” and “considerably weaker inhibition”.
For the compound “siRNA-3: DOT1L siRNA (Invitrogen): 104-CGCUGCCGGUCUACGAUAAACAUCA (other strand not given here)”, in the data set with MDA-MB231 [15], the “effect on cell proliferation” value is on record as “did not significantly affect the growth”. Besides, the “effect on H3K79 methylation” value with H3K79 methylation was “considerably weaker inhibition”.
The like results for “siRNA-4: DOT1L siRNA (Invitrogen): 470-CCCAGAUGAUUGAUGAGAUCAAGAU (other strand not given here)” were, in that order, “inhibited cell proliferation” and “significantly reduced H3K79 methylation”.
